The values below come from patent EP1137438B1, “FORMULATION WITH AN IMPROVED THERAPEUTIC RANGE, CONTAINING NUCLEOTIDE SYNTHESIS INHIBITORS” (Aventis Pharma Deutschland GmbH, priority 1998, dated 2000).

Data set [1] in a line: Blood levels and duration of action of Verbindung 1 after later administration of Colestyramin. To be noted: after later administration of Colestyramin (interruption of enterohepatic circulation); result in words. In kind it is in vivo. The text has this:
Die erfindungsgemäße Zubereitung kann auch Kompositionen oder Kombinationspackungen umfassen, in denen die Bestandteile nebeneinander gestellt sind und deshalb gleichzeitig, getrennt oder zeitlich abgestuft an ein und denselben menschlichen oder tierischen Körper anwendbar sind. Bevorzugt ist die zeitlich abgestufte Applikation von der Verbindung der Formel I und/oder II vor der Applikation der Verbindung, die die enterohepatische Zirkulation der Verbindung der Formel I oder II im wesentlichen verhindert. Hierzu wird beispielsweise zuerst N-(4-Trifluormethylphenyl)-2-cyan-3-hydroxy-crotonsäureamid (im folgenden als Verbindung 1 bezeichnet) appliziert. Colestyramin, das die enterohepatische Zirkulation der Verbindung 1 im wesentlichen verhindert, wird zeitlich versetzt, also z.B. 2 Stunden oder 4 Stunden nach der Gabe der Verbindung 1, appliziert. Durch diese zeitlich versetzte Gabe der Verbindung 1 und Colestyramin wird die Verbindung 1 zunächst ungehindert aus dem Verdauungstrakt resorbiert.
Nach der Gabe von Colestyramin, welches systemisch nicht resorbiert wird, wird die über die Galle ausgeschiedene Verbindung 1 an Colestyramin gebunden und kann daher nicht wieder reabsorbiert werden; dadurch wird eine Unterbrechung der enterohepatischen Zirkulation bewirkt.

The subject of data set [2] is Adjuvans induzierte Arthritis. Kind of data set: Adjuvant-induced arthritis, modification after Perper (paw volume, arthritis index on day 18). In kind it is in vivo, männliche Ratten eines Lewis-Stammes. How it is done: Adjuvans induzierte Arthritis, Modifikation nach Perper (Proc. Soc. exp. Biol. Med. 137, 506 (1971)) Als Versuchstiere dienten männliche Ratten eines Lewis-Stammes (Moellegard, Dänemark) mit einem Körpergewicht von 160 bis 210 g. Die Tiere erhielten am 1.
Tag eine subkutane Injektion in die Schwanzwurzel mit kompletten Freund'schen Adjuvans, enthaltend eine Mycobacterium butyricum Suspension in schwerem Paraffin Öl (Difco; 6 mg/kg in Paraffin Öl; Merck). Die Verbindungen N-(4-Trifluormethylphenyl)-2-cyan-3-hydroxy-crotonsäureamid und Colestyramin wurden in Carboxymethylcellulose (1 % in Wasser) suspendiert und oral verabreicht. Die Verbindungen wurden einmal täglich vom 1. bis zum 17. Versuchstag appliziert; dann erfolgte die Bestimmung des Pfotenvolumens und Arthritis-Index am 18. Tag.
Die Schwere der Erkrankung wurde durch Messung des Pfotenvolumens beider Hinterpfoten bestimmt. Die Messung erfolgte durch die Wasserverdrängungsmethode mit einem Plethysmometer 2060 (Rhema-Labortechnik, Hofheim, Deutschland). Ferner erfolgte die Bestimmung des Arthritis Index am 18. Tag nach der Injektion.
Bestimmung des Arthritis Index: 1. Ohren 0,5 Punkte für jedes Ohr an dem eine Rötung auftritt und Knoten gebildet werden 2. Nase 1 Punkt für Bindegewebsschwellung 3. Schwanz 1 Punkt für das Auftauchen von Knoten 4. Vorderpfoten 0,5 Punkte für jede Pfote an der wenigsten eine Entzündung an einem Gelenk auftritt 5. Hinterpfoten 1 Punkt für leichte Entzündung (Schwellung) 2 Punkte für eine mittelstarke Entzündung 3 Punkte für eine massive Entzündungsreaktion
Tiere einer Kontrollgruppe "Arthritis Kontrolle" erhielten am 1. Tag eine subkutane Injektion in die Schwanzwurzel mit kompletten Freund'schen Adjuvans und erhielten aber nur das Lösungsmittel (1 % Carboxymethylcellulose in Wasser). Pro Dosierung und in der Kontrollgruppe wurden jeweils 6 Tiere verwendet. Als weitere Kontrollgruppe "gesunde Kontrolle" wurden unbehandelte Tiere eingesetzt. Als Wirkungskriterium diente die Herabsetzung der Pfotenvolumenzunahme und die Abnahme des Arthritis Index gegenüber der unbehandelten Kontrollgruppe und das Gewicht der Tiere jeweils in Prozent und bezogen auf die Arthritis Kontrolle.
In der folgenden Tabelle wird N-(4-Trifluormethylphenyl)-2-cyan-3-hydroxycrotonsäureamid als Verbindung 1 bezeichnet. Colestyramin wurde 4 Stunden später als Verbindung 1 appliziert. Tabelle 1 zeigt die erhaltenen Ergebnisse. Tabelle 1

Where [3] appears, read: Tabelle 1, Verbindung 1 25 mg/kg oral (combination: + 1000 mg/kg Colestyramin 4 h later), once daily day 1-17, read day 18.
The mark [4] stands for this setting: Tabelle 1, Verbindung 1 2,5 mg/kg oral (combination: + 1000 mg/kg Colestyramin 4 h later), once daily day 1-17, read day 18.
The mark [5] stands for this setting: Tabelle 1, Verbindung 1 7,5 mg/kg oral (combination: + 1000 mg/kg Colestyramin 4 h later), once daily day 1-17, read day 18.
Where [6] appears, read: Tabelle 2 (Beispiel 2), Colestyramin 1000, Verbindung 1 25, combination 25 + 1000 mg/kg (Colestyramin 4 h later).
Where [7] appears, read: Tabelle 3 (Beispiel 3), Colestyramin 1000, Verbindung 1 25, combination 25 + 1000 mg/kg (Colestyramin 4 h later).

For the molecule `CC(O)=C(C#N)C(=O)Nc1ccc(C(F)(F)F)cc1` [Verbindung 1, N-(4-Trifluormethylphenyl)-2-cyan-3-hydroxy-crotonsäureamid], the “Wirkungsdauer und Blutspiegel der Verbindung 1” value in data set [1] is “drastisch reduziert”. The “Arthritis Index (%)” value is recorded as -100% in data set [2] (setting [3]); -77% in data set [2] (setting [4]); -92% in data set [2] (setting [5]); -100% in data set [2] (setting [6]); -100% in data set [2] (setting [7]). The “Pfotenvolumen (%)” value is given as -92% in data set [2] (setting [3]); -63% in data set [2] (setting [4]); -83% in data set [2] (setting [5]); -92% in data set [2] (setting [6]); -110% in data set [2] (setting [7]). Also, in data set [2] (about 2,5 mg/kg/Tag Verbindung 1, effect of added Colestyramin, result in words), the “Wirksamkeit im pathologischen Tiermodell (Adjuvans Arthritis)” value is on record as “nicht vermindert”.
